From PubChem BioAssay (NCI)
“And” between values parts separate entries of the source, which are not always exact repeats. Equal entries are not always repeated.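 1) Cells in 96-well plates. 2) Compound, 48 h, 5 concentrations. 3) Linear interpolation between surrounding doses. 4) Unreached endpoint = highest concentration. GI50: concentration for 50% inhibition of growth. TGI denotes the concentration required for complete inhibition of growth.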

How the values were obtained:
Experiment in all cases: NCI-60 cell line screen, 48 h
UO-31 renal = test system: UO-31 renal
786-0 renal = test system: 786-0 renal
NCI-H226 lung = test system: NCI-H226 lung
SF-295 CNS = test system: SF-295 CNS
UACC-257 melanoma = test system: UACC-257 melanoma
HT29 colon = test system: HT29 colon
A498 renal = test system: A498 renal
SNB-75 CNS = test system: SNB-75 CNS
M14 melanoma = test system: M14 melanoma
HOP-62 NSCLC = test system: HOP-62 NSCLC

Row | Compound | TGI (UO-31 renal) | GI50 (786-0 renal) | TGI (786-0 renal) | GI50 (NCI-H226 lung) | TGI (NCI-H226 lung) | GI50 (SF-295 CNS) | TGI (SF-295 CNS) | GI50 (UACC-257 melanoma) | TGI (UACC-257 melanoma) | GI50 (HT29 colon) | TGI (HT29 colon) | GI50 (A498 renal) | TGI (A498 renal) | GI50 (SNB-75 CNS) | TGI (SNB-75 CNS) | GI50 (M14 melanoma) | TGI (M14 melanoma) | TGI (HOP-62 NSCLC) | GI50 (UO-31 renal) | GI50 (HOP-62 NSCLC)
1 | CNS(=O)(=O)Nc1nccc(Cc2c(C)c3ccc(Oc4ncccn4)cc3oc2=O)c1F | > 100 µM | > 85.9 µM | > 100 µM | 6.82 µM and > 10 µM | > 100 µM | 27.8 µM and > 10 µM | > 100 µM | 0.0153 µM and 0.0116 µM | 0.0866 µM and 0.0784 µM | 0.0278 µM and 0.0231 µM | > 100 µM | 0.0424 µM and 0.0459 µM | 1.38 µM and 0.531 µM | > 58.9 µM | > 100 µM | 0.0116 µM and 0.0113 µM | 1.63 µM and > 10 µM | > 100 µM | – | –
2 | N=C(N)SCc1ccc(Cl)c2ccccc12 (tested in a mixture with another compound) | 24.3 µM and 26.3 µM | – | 23.9 µM and 27.2 µM | – | 30.3 µM and 28.6 µM | – | 24.9 µM and 23.7 µM | – | 13.8 µM and 12.9 µM | – | 24.2 µM and 26.4 µM | – | 22.5 µM and 23.2 µM | – | 23.1 µM and 19.2 µM | – | 23.8 µM and 26.5 µM | 24.3 µM and 30.5 µM | – | –
3 | O=C1NC(=O)C2C3C=CC(C12)C1C2C(=O)NC(=O)C2C31 (configuration not stated) | 250 µM and > 1000 µM | > 250 µM | > 1000 µM | > 484 µM | 250 µM and > 762 µM | 827 µM | 199 µM and > 1000 µM | > 1000 µM | 250 µM and > 1000 µM | 657 µM | 194 µM and > 1000 µM | 467 µM | 250 µM and > 1000 µM | 291 µM | 249 µM and > 856 µM | > 973 µM | 250 µM and > 1000 µM | – | 596 µM | > 644 µM
4 | Nc1cc(C(F)(F)F)c(-c2nc(N3CCOCC3)nc(N3CCOCC3)n2)cn1 | 2.08 µM | 0.482 µM | 6.33 µM | 0.384 µM | 12.2 µM | 0.226 µM | 1.75 µM | 0.293 µM | 2.98 µM | 0.214 µM | 36 µM | 0.14 µM | 0.45 µM | 0.118 µM | 2.19 µM | 0.401 µM | 14.1 µM | 16.2 µM | 0.111 µM | 0.643 µM
5 | Cc1ccccc1NC(=O)CC(=O)NNCC(=O)Nc1nnc(-c2ccccc2)s1 | > 100 µM | – | > 100 µM | – | > 100 µM | – | > 100 µM | – | > 100 µM | – | > 100 µM | – | > 100 µM | – | 63.8 µM | – | > 100 µM | > 100 µM | – | –
6 | O=C1NC(c2ccccc2Cl)Nc2ccccc21 (configuration not stated) | > 100 µM | – | > 100 µM | – | > 84.6 µM | – | > 72.3 µM | – | > 100 µM | – | > 100 µM | – | > 100 µM | – | 49.1 µM | – | > 100 µM | > 100 µM | – | –
7 | CC(C)(C)c1ccc(OCCOCCOc2ccc(C(C)(C)C)cc2S(N)(=O)=O)c(S(N)(=O)=O)c1 | > 100 µM | – | > 100 µM | – | > 100 µM | – | > 100 µM | – | > 100 µM | – | > 100 µM | – | > 100 µM | – | > 100 µM | – | > 100 µM | > 100 µM | – | –
8 | CC(=O)NC(CCCNC(=O)OCc1ccccc1)C(=O)NCc1ccccc1 (configuration not stated) | > 100 µM | – | > 100 µM | – | > 100 µM | – | > 100 µM | – | > 100 µM | – | > 100 µM | – | > 100 µM | – | > 100 µM | – | > 100 µM | > 100 µM | – | –
9 | CC1(C)CC(=O)C(C(=O)Nc2cccs2)=C(O)C1 | 81.7 µM | – | > 100 µM | – | 86.8 µM | – | > 100 µM | – | > 100 µM | – | > 100 µM | – | 88.9 µM | – | 59.3 µM | – | > 100 µM | > 100 µM | – | –
10 | O=C(CC1(O)C(=O)Nc2c(Cl)ccc(Cl)c21)c1ccc(Cl)cc1 (configuration not stated) | > 100 µM | – | 32.1 µM | – | > 100 µM | – | 83.4 µM | – | 94.7 µM | – | 73.2 µM | – | 82.5 µM | – | 64.9 µM | – | 69.1 µM | > 100 µM | – | –
11 | COc1ccc(C(C)Nc2cc(OC)c(OC)c(OC)c2)cc1 (configuration not stated) | > 100 µM | – | > 100 µM | – | > 100 µM | – | 7.53 µM | – | > 100 µM | – | > 100 µM | – | > 100 µM | – | > 100 µM | – | > 100 µM | > 83.2 µM | – | –
12 | O=C(CCN1CCOCC1)Nc1ccc(Cn2nnc3c2C(=O)c2nnn(Cc4ccc(NC(=O)CCN5CCOCC5)cc4)c2C3=O)cc1 | > 100 µM | > 100 µM | > 100 µM | > 100 µM | > 100 µM | > 25.7 µM | > 100 µM | 1.64 µM | 3.57 µM | 1.24 µM | > 100 µM | > 100 µM | > 100 µM | 1.93 µM | 3.6 µM | 6.74 µM | > 23.1 µM | > 100 µM | > 100 µM | 57.7 µM
13 | O=C(CC1(O)C(=O)Nc2c(Cl)cc(Cl)cc21)c1cccc([N+](=O)[O-])c1 (configuration not stated) | 60.1 µM | – | > 59.9 µM | – | > 77.5 µM | – | > 100 µM | – | 44.8 µM | – | > 100 µM | – | 66.8 µM | – | 68.2 µM | – | > 58 µM | 98.6 µM | – | –
14 | COC1=CC(=O)C(O)=C(CC2(C)C(C)CCC3(C)C2CCCC3(C)C)C1=O (configuration not stated) | 17.2 µM | – | 19.1 µM | – | 9.91 µM | – | 16.3 µM | – | 21.9 µM | – | 23.1 µM | – | 22.1 µM | – | 19 µM | – | 7.65 µM | 10.7 µM | – | –
15 | COc1ccc(-n2c(=O)c3ccccc3n(Cc3ccc(C(=O)NO)cc3)c2=O)cc1 | 21.5 µM | 2.53 µM | 7.09 µM | 1.56 µM | 3.75 µM | 1.81 µM | 3.54 µM | 1.65 µM | 4.3 µM | 2.97 µM | 22.6 µM | 1.09 µM | 3.25 µM | 1.72 µM | 5.71 µM | 1.71 µM | 3.44 µM | 6.19 µM | 6.58 µM | 2.29 µM
16 | O=[N+]([O-])c1ccc(/C=C/c2ccc(/C=C/c3ccc([N+](=O)[O-])cc3[N+](=O)[O-])cc2)c([N+](=O)[O-])c1 | > 100 µM | – | > 100 µM | – | > 100 µM | – | > 100 µM | – | > 100 µM | – | > 100 µM | – | > 100 µM | – | > 100 µM | – | > 100 µM | > 100 µM | – | –
17 | COc1cc2c(cc1OCCN1CCN(CCN3C(=O)c4cccc5cccc(c45)C3=O)CC1)N=C[C@@H]1CCCN1C2=O | 32.5 µM | 18.2 µM | 33.4 µM | 20.1 µM | 40.3 µM | 22.9 µM | 41.1 µM | 21.1 µM | 48.3 µM | 22.6 µM | 43.9 µM | 20.5 µM | 40.4 µM | 20.4 µM | 37.5 µM | 14.5 µM | 28.7 µM | 34.9 µM | 18.5 µM | 19.7 µM
18 | CN(C)CCNC(=O)c1cccc2c1nc(-c1cccnc1)c1ccccc12 | 10.8 µM | – | 24.6 µM | – | 16.5 µM | – | 20.1 µM | – | 16.1 µM | – | 26.9 µM | – | 15.7 µM | – | 22 µM | – | 19.9 µM | 22.3 µM | – | –
